Test system: 138582-337-R-J1-PDC complex spheroid viability
Test: Anticancer human tumor 138582-337-R-J1-PDC patient-derived Merkel cell tumor cell line growth inhibition
Settings: for IC50: curve of first compound; for viability, T/C: stronger effect = lower value; active means viability on the fitted dose curve at most 10% of control; inactive means the rest
Outline: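 Multicellular complex spheroids of tumor cells with human endothelial cells (HUVEC) and mesenchymal stem cells; the LSD1 inhibitor iadademstat was combined with standard-of-care or investigational agents. Top concentration at or near clinical Cmax, half-log dilutions; final DMSO ≤0.25%.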

[1] = second compound 0.1 µM, first compound 0.00949 µM
[2] = second compound 0.1 µM, first compound 0.03 µM
[3] = second compound 0.1 µM, first compound 0.0949 µM
[4] = second compound 0.1 µM, first compound 0.3 µM
[5] = second compound 0.316 µM, first compound 0.00949 µM
[6] = second compound 0.316 µM, first compound 0.03 µM
[7] = second compound 0.316 µM, first compound 0.0949 µM
[8] = second compound 0.316 µM, first compound 0.3 µM
[9] = second compound 1 µM, first compound 0.00949 µM
[10] = second compound 1 µM, first compound 0.03 µM
[11] = second compound 1 µM, first compound 0.0949 µM
[12] = second compound 1 µM, first compound 0.3 µM
[13] = second compound 3.16 µM, first compound 0.00949 µM
[14] = second compound 3.16 µM, first compound 0.03 µM
[15] = second compound 3.16 µM, first compound 0.0949 µM
[16] = second compound 3.16 µM, first compound 0.3 µM
[17] = second compound 10 µM, first compound 0.00949 µM
[18] = second compound 10 µM, first compound 0.03 µM
[19] = second compound 10 µM, first compound 0.0949 µM
[20] = second compound 10 µM, first compound 0.3 µM
[21] = second compound 0.1 µM, first compound 0.00316 µM
[22] = second compound 0.1 µM, first compound 0.01 µM
[23] = second compound 0.1 µM, first compound 0.0316 µM
[24] = second compound 0.1 µM, first compound 0.1 µM
[25] = second compound 0.316 µM, first compound 0.00316 µM
[26] = second compound 0.316 µM, first compound 0.01 µM
[27] = second compound 0.316 µM, first compound 0.0316 µM
[28] = second compound 0.316 µM, first compound 0.1 µM
[29] = second compound 1 µM, first compound 0.00316 µM
[30] = second compound 1 µM, first compound 0.01 µM
[31] = second compound 1 µM, first compound 0.0316 µM
[32] = second compound 1 µM, first compound 0.1 µM
[33] = second compound 3.16 µM, first compound 0.00316 µM
[34] = second compound 3.16 µM, first compound 0.01 µM
[35] = second compound 3.16 µM, first compound 0.0316 µM
[36] = second compound 3.16 µM, first compound 0.1 µM
[37] = second compound 10 µM, first compound 0.00316 µM
[38] = second compound 10 µM, first compound 0.01 µM
[39] = second compound 10 µM, first compound 0.0316 µM
[40] = second compound 10 µM, first compound 0.1 µM
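Further: spheroids exposed to agents for 7 days.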
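Wherever viability, T/C is given: 100% = DMSO vehicle control viability.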

O=C(C=Cc1cccc(S(=O)(=O)Nc2ccccc2)c1)NO + NC1CC1c1ccc(-c2cccc(O)c2)cc1
74.9 nM: IC50 (second compound 0.316 µM)
90.7 nM: IC50 (second compound 0.1 µM)
64.8 nM: IC50 (second compound 3.16 µM)
inactive: viability, T/C [1] 67.6% | viability, T/C [2] 64.1% | viability, T/C [3] 49.6% | viability, T/C [4] 36.1% | viability, T/C (second compound 0.1 µM, first compound 0.949 µM) 0.36% | viability, T/C (second compound 0.1 µM, first compound 3 µM) 69.3% | viability, T/C [5] 58% | viability, T/C [6] 53.2% | viability, T/C [7] 48.6% | viability, T/C [8] 21.1% | viability, T/C (second compound 0.316 µM, first compound 0.949 µM) 0.35% | viability, T/C (second compound 0.316 µM, first compound 3 µM) 59.1% | viability, T/C [9] 44.8% | viability, T/C [10] 51% | viability, T/C [11] 49.6% | viability, T/C [12] 25% | viability, T/C (second compound 1 µM, first compound 0.949 µM) 0.46% | viability, T/C (second compound 1 µM, first compound 3 µM) 49.2% | viability, T/C [13] 49.9% | viability, T/C [14] 63.3% | viability, T/C [15] 45.2% | viability, T/C [16] 25.6% | viability, T/C (second compound 3.16 µM, first compound 0.949 µM) 0.37% | viability, T/C (second compound 3.16 µM, first compound 3 µM) 30.9% | viability, T/C [17] 66.8% | viability, T/C [18] 57.6% | viability, T/C [19] 53.6% | viability, T/C [20] 29.8% | viability, T/C (second compound 10 µM, first compound 0.949 µM) 0.44% | viability, T/C (second compound 10 µM, first compound 3 µM) 41.2%
113 nM: IC50 (second compound 10 µM)
< 9.49 nM: IC50 (second compound 1 µM)

CC(C)CC(NC(=O)CNC(=O)c1cc(Cl)ccc1Cl)B1OC(=O)CC(CC(=O)O)(C(=O)O)O1 (stereo not given) + NC1CC1c1ccc(-c2cccc(O)c2)cc1
8.37 nM: IC50 (second compound 1 µM)
8.59 nM: IC50 (second compound 0.316 µM)
9.49 nM: IC50 (second compound 10 µM)
active: viability, T/C [23] 1.47% | viability, T/C [24] 0.24% | viability, T/C [27] 4.55% | viability, T/C [28] 0.6% | viability, T/C [31] 2.09% | viability, T/C [32] 0.29% | viability, T/C [35] 2.37% | viability, T/C [36] 0.26% | viability, T/C [39] 0.57% | viability, T/C [40] 0.27%
10.1 nM: IC50 (second compound 3.16 µM)
11.8 nM: IC50 (second compound 0.1 µM)
inactive: viability, T/C (second compound 0.1 µM, first compound 0.000316 µM) 94.3% | viability, T/C (second compound 0.1 µM, first compound 0.001 µM) 98.9% | viability, T/C [21] 101% | viability, T/C [22] 58.3% | viability, T/C (second compound 0.316 µM, first compound 0.000316 µM) 80.7% | viability, T/C (second compound 0.316 µM, first compound 0.001 µM) 95% | viability, T/C [25] 115% | viability, T/C [26] 42.8% | viability, T/C (second compound 1 µM, first compound 0.000316 µM) 92.5% | viability, T/C (second compound 1 µM, first compound 0.001 µM) 112% | viability, T/C [29] 140% | viability, T/C [30] 38.1% | viability, T/C (second compound 3.16 µM, first compound 0.000316 µM) 113% | viability, T/C (second compound 3.16 µM, first compound 0.001 µM) 104% | viability, T/C [33] 126% | viability, T/C [34] 50.3% | viability, T/C (second compound 10 µM, first compound 0.000316 µM) 110% | viability, T/C (second compound 10 µM, first compound 0.001 µM) 139% | viability, T/C [37] 129% | viability, T/C [38] 46.3%

CC1COCCN1c1cc(-c2ccnn2C)c2ccnc(-c3ccn[nH]3)c2n1 (stereo not given) + NC1CCC(NC2CC2c2ccccc2)CC1
231 nM: IC50 (second compound 0.316 µM)
441 nM: IC50 (second compound 0.1 µM)
inactive: viability, T/C [21] 90.8% | viability, T/C [22] 91.8% | viability, T/C [23] 77.4% | viability, T/C [24] 75.8% | viability, T/C (second compound 0.1 µM, first compound 0.316 µM) 53.8% | viability, T/C (second compound 0.1 µM, first compound 1 µM) 36.7% | viability, T/C [25] 76.9% | viability, T/C [26] 104% | viability, T/C [27] 91.3% | viability, T/C [28] 65% | viability, T/C (second compound 0.316 µM, first compound 0.316 µM) 47.9% | viability, T/C (second compound 0.316 µM, first compound 1 µM) 38.2% | viability, T/C [29] 110% | viability, T/C [30] 101% | viability, T/C [31] 80% | viability, T/C [32] 70% | viability, T/C (second compound 1 µM, first compound 0.316 µM) 50.3% | viability, T/C (second compound 1 µM, first compound 1 µM) 44.7% | viability, T/C [33] 89% | viability, T/C [34] 77.9% | viability, T/C [35] 77.3% | viability, T/C [36] 69.2% | viability, T/C (second compound 3.16 µM, first compound 0.316 µM) 47.9% | viability, T/C (second compound 3.16 µM, first compound 1 µM) 40.1% | viability, T/C [37] 75.7% | viability, T/C [38] 73.4% | viability, T/C [39] 72.6% | viability, T/C [40] 67.4% | viability, T/C (second compound 10 µM, first compound 0.316 µM) 50.2% | viability, T/C (second compound 10 µM, first compound 1 µM) 42.6%
454 nM: IC50 (second compound 1 µM)
332 nM: IC50 (second compound 3.16 µM) | IC50 (second compound 10 µM)

Nc1ccn(C2OC(CO)C(O)C2(F)F)c(=O)n1 (stereo not given) + NC1CCC(NC2CC2c2ccccc2)CC1
inactive: viability, T/C (second compound 0.1 µM, first compound 0.000949 µM) 96% | viability, T/C (second compound 0.1 µM, first compound 0.003 µM) 94.2% | viability, T/C [1] 94.2% | viability, T/C [2] 95.3% | viability, T/C [3] 94.7% | viability, T/C [4] 105% | viability, T/C (second compound 0.316 µM, first compound 0.000949 µM) 89.9% | viability, T/C (second compound 0.316 µM, first compound 0.003 µM) 92% | viability, T/C [5] 93.6% | viability, T/C [6] 85.8% | viability, T/C [7] 84.2% | viability, T/C [8] 106% | viability, T/C (second compound 1 µM, first compound 0.000949 µM) 98.3% | viability, T/C (second compound 1 µM, first compound 0.003 µM) 93.7% | viability, T/C [9] 95.4% | viability, T/C [10] 80.9% | viability, T/C [11] 108% | viability, T/C [12] 85.6% | viability, T/C (second compound 3.16 µM, first compound 0.000949 µM) 79.8% | viability, T/C (second compound 3.16 µM, first compound 0.003 µM) 81% | viability, T/C [13] 91.8% | viability, T/C [14] 87.9% | viability, T/C [15] 85.8% | viability, T/C [16] 88.7% | viability, T/C (second compound 10 µM, first compound 0.000949 µM) 88.7% | viability, T/C (second compound 10 µM, first compound 0.003 µM) 71.1% | viability, T/C [17] 87% | viability, T/C [18] 79.4% | viability, T/C [19] 76.4% | viability, T/C [20] 92.6%
> 300 nM: IC50 (second compound 0.1 µM) | IC50 (second compound 0.316 µM) | IC50 (second compound 1 µM) | IC50 (second compound 3.16 µM) | IC50 (second compound 10 µM)
